In patent publication US9750747B2, “Treatments involving eslicarbazepine acetate or eslicarbazepine” (BAIL-PORTELA & CA, S.A., priority 2011, dated 2017):
Read-outs that look alike come from different tables or passages of the source.

What was measured:
Format in all cases: cell-based
[1] = biological target: T1, α1β2γ2 GABA receptors (Homo sapiens, UniProt P14867+P18507+P47870); experiment: whole-cell patch-clamp, sub-maximal GABA inward currents in stably transfected Ltk cells; settings: Table 1
T1 construct: host or cells: Ltk cells, expression induced with dexamethasone
Procedure: (§1) Carbamazepine (CBZ) aggravates absence seizures in ‘generalized absence epilepsy rats from. Strasbourg’. One putative mechanism for the aggravation is through its reported potentiation of GABAA currents. A study was carried out to determine the effect of eslicarbazepine, R-licarbazepine and carbamazepine on sub-maximal GABA currents in Ltk cells stably expressing α1β2γ2, α2β2γ2, α3β2γ2 or α5β2γ2 GABA-receptors. The whole-cell patch-clamp technique was used to investigate the effects of the test compounds on GABAA receptors.
(§2) Used Ltk cells were stably transfected with recombinant GABAA cDNAs: α1β2γ2, α2β2γ2, α3β2γ2 or α5β2γ2 (B'SYS GmbH, Switzerland). […] For the electrophysiological experiments cells were cultivated, at a density that enabled single cells to be measured, in medium without antibiotics or antimycotics. Cells were tested 24-48 hours following induction of transgene expression with dexamethasone.
(§3) The whole-cell patch clamp recordings from transfected Ltk cells (voltage-clamped at a holding potential of −80 mV) were made using a EPC-7, HEKA Electronics amplifier. GABA inward-currents were measured upon application of 1 or 2 μM GABA to patch-clamped cells (at an EC5).
(§4) Analysis of Variance (ANOVA) with post test multisample comparison (Dunnett) was conducted with GraphPad Prism 4 Software.

[2] = biological target: T2, α2β2γ2 GABA receptors (Homo sapiens, UniProt P18507+P47869+P47870); experiment: as above; settings: Table 1
T2 construct: host or cells: Ltk cells, expression induced with dexamethasone
Procedure: as §1, §2, §3, §4

[3] = biological target: T3, α3β2γ2 GABA receptors (Homo sapiens, UniProt P18507+P34903+P47870); experiment: as above; settings: Table 1
T3 construct: host or cells: Ltk cells, expression induced with dexamethasone
Procedure: as §1, §2, §3, §4

[4] = biological target: T4, α5β2γ2 GABA receptors (Homo sapiens, UniProt P18507+P31644+P47870); experiment: as above; settings: Table 1
T4 construct: host or cells: Ltk cells, expression induced with dexamethasone
Procedure: as §1, §2, §3, §4

[5] = biological target: T5, human T-type calcium channels hCav3.2 (Homo sapiens, UniProt O95180); experiment: whole-cell patch-clamp, calcium peak currents in stably transfected HEK 293 cells; settings: for Relative current amplitude (%): hCav3.2 in HEK 293 cells; for IC50: two site binding model
T5 construct: expressed in transfected cells; host or cells: HEK 293 cells (European Collection of Animal Cell Culture)
Procedure: A study was carried out to determine the effect of eslicarbazepine.
Cells were stably transfected with hCav3.2 cDNA.
Calcium inward currents were measured upon depolarization of the cell membrane to −25 mV for 50 ms from a holding potential of −80 mV. This voltage protocol was run at intervals of 10 s until stabilization of evoked hCav3.2 currents. […] Vehicle was either bath solution or 0.2% DMSO.
Analysis of variance (ANOVA) with post test multisample comparison (Dunnett) was conducted with GraphPad Prism 4 Software. IC50 were calculated with the equation: […]

[6] = test system: α1β2γ2, α2β2γ2, α3β2γ2 or α5β2γ2 GABA-receptors; experiment: overall effect on sub-maximal GABA currents (summary of Example 1); settings: Ltk cells, all four receptor subtypes
Procedure: as §1
Used Ltk cells were stably transfected with recombinant GABAA cDNAs: α1β2γ2, α2β2γ2, α3β2γ2 or α5β2γ2 (B'SYS GmbH, Switzerland). Cells were maintained in a humidified atmosphere (95% relative humidity) with 5% CO2 and were grown in D-MEM/F-12 (1×, liquid, with GlutaMax 1) supplemented with 9% foetal bovine serum and 0.9% Penicillin/Streptomycin solution (Gibco BRL). For the electrophysiological experiments cells were cultivated, at a density that enabled single cells to be measured, in medium without antibiotics or antimycotics. Cells were tested 24-48 hours following induction of transgene expression with dexamethasone.
Cells were continuously perfused with bath solution (NaCl 137 mM, KCl 4 mM, CaCl2 1.8 mM, MgCl2 1 mM, D-Glucose 10 mM HEPES 10 mM, pH 7.4). […] GABA inward-currents were measured upon application of 1 or 2 μM GABA to patch-clamped cells (at an EC5). […]

[7] = 50 μM with GABA at EC5, Ltk cells
[8] = 100 μM with GABA at EC5, Ltk cells
[9] = 250 μM with GABA at EC5, Ltk cells
[10] = 500 μM with GABA at EC5, Ltk cells

T4 sequence (P31644 32-462): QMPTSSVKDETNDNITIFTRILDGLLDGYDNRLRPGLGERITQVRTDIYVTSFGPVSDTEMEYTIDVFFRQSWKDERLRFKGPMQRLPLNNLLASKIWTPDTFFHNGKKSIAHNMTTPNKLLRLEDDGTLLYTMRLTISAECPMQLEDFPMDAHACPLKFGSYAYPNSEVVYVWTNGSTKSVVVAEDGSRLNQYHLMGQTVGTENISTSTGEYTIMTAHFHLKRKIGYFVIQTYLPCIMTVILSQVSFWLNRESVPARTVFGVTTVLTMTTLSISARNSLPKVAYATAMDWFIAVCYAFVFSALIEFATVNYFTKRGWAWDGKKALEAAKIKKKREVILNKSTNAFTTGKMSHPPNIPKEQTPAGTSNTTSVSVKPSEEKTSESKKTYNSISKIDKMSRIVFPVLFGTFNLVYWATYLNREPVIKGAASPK
T4 sequence (P47870 25-512 limits assumed): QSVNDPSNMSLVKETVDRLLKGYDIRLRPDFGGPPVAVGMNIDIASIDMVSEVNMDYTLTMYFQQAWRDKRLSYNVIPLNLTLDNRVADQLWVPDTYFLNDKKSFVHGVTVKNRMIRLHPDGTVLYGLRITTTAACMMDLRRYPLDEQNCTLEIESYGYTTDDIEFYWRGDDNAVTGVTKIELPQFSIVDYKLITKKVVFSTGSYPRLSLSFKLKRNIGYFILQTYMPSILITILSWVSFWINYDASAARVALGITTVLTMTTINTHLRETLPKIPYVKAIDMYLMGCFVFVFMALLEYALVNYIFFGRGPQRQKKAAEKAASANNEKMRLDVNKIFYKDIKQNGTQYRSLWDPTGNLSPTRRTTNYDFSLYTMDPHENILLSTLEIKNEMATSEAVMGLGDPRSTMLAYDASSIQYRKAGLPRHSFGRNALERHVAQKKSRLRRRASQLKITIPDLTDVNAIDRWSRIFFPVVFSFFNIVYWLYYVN
T4 sequence (P18507 40-475): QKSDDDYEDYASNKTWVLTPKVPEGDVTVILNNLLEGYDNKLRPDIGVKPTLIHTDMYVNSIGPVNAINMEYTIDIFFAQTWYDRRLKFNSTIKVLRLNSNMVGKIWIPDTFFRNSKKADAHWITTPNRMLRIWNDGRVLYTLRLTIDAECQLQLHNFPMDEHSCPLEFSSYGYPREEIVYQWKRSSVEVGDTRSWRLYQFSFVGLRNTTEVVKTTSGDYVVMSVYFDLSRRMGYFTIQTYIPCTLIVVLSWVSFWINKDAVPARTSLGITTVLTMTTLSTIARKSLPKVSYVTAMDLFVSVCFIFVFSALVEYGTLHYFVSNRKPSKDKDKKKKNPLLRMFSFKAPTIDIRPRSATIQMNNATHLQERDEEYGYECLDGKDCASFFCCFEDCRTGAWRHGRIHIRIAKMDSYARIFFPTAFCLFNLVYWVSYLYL
T1 sequence (P14867 28-456): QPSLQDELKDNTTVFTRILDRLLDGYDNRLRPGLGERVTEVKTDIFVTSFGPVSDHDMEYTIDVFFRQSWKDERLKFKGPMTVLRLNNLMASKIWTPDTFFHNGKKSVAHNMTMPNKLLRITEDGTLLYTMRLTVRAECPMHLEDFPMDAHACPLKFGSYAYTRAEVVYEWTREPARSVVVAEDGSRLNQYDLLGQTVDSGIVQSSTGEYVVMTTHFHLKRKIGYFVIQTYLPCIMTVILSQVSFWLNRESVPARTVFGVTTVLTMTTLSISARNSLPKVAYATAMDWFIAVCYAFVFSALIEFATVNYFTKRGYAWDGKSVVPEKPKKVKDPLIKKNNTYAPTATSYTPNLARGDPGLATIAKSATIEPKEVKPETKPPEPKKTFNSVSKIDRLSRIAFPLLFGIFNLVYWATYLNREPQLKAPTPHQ
T1 sequence (P47870 25-512 limits assumed): as the sequence (P47870 25-512 limits assumed) above
T1 sequence (P18507 40-475): as the sequence (P18507 40-475) above
T3 sequence (P34903 29-492): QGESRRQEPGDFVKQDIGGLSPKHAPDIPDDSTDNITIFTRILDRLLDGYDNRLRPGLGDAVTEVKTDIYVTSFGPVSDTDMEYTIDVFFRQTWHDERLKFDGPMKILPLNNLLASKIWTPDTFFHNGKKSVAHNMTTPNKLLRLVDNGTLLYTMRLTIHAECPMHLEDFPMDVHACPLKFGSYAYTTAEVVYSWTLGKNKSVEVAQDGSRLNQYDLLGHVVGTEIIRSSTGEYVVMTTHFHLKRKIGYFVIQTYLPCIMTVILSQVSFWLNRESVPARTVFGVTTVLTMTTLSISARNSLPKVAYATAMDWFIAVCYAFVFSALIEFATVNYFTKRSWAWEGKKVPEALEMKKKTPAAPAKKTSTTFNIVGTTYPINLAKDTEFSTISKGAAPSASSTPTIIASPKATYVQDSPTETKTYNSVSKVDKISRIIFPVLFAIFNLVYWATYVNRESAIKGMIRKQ
T3 sequence (P47870 25-512 limits assumed): as the sequence (P47870 25-512 limits assumed) above
T3 sequence (P18507 40-475): as the sequence (P18507 40-475) above
T2 sequence (P47869 29-451): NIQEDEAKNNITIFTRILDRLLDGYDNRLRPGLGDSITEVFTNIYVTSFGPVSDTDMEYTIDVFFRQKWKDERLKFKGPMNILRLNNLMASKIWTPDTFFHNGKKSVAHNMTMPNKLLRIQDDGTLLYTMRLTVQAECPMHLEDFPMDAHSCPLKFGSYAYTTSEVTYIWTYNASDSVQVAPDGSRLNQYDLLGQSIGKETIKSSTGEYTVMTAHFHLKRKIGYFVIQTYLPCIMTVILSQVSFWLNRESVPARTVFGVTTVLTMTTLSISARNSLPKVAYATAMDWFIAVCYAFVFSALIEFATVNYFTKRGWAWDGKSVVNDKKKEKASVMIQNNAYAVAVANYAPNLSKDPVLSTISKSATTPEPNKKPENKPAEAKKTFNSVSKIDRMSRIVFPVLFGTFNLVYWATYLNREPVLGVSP
T2 sequence (P47870 25-512 limits assumed): as the sequence (P47870 25-512 limits assumed) above
T2 sequence (P18507 40-475): as the sequence (P18507 40-475) above

NC(=O)N1c2ccccc2C[C@@H](O)c2ccccc21 [R-licarbazepine]
Current stimulation (%) α1β2γ2 [1, 7]: 99.85 ± 1.18% | Current stimulation (%) α1β2γ2 [1, 8]: 92.53 ± 4.53% | Current stimulation (%) α1β2γ2 [1, 9]: 91.73 ± 4.69% | Current stimulation (%) α1β2γ2 [1, 10]: 95.83 ± 6.63% | Current stimulation (%) α2β2γ2 [2, 7]: 96.48 ± 2.11% | Current stimulation (%) α2β2γ2 [2, 8]: 97.03 ± 2.27% | Current stimulation (%) α2β2γ2 [2, 9]: 93.79 ± 3.09% | Current stimulation (%) α2β2γ2 [2, 10]: 87.75 ± 1.94 % | Current stimulation (%) α3β2γ2 [3, 7]: 99.53 ± 2.65% | Current stimulation (%) α3β2γ2 [3, 8]: 100.38 ± 1.56% | Current stimulation (%) α3β2γ2 [3, 9]: 102.94 ± 3.34% | Current stimulation (%) α3β2γ2 [3, 10]: 97.35 ± 2.91% | Current stimulation (%) α5β2γ2 [4, 7]: 96.13 ± 0.57% | Current stimulation (%) α5β2γ2 [4, 8]: 94.09 ± 1.27% | Current stimulation (%) α5β2γ2 [4, 9]: 97.24 ± 1.58% | Current stimulation (%) α5β2γ2 [4, 10]: 92.25 ± 1.29% | effect on hCav3.2 calcium peak currents (in words) [5]: dose dependently inhibited | Relative current amplitude (%) ([5]; 0.3 μM): 98.42 ± 1.33% | Relative current amplitude (%) ([5]; 1 μM): 92.43 ± 1.41% | Relative current amplitude (%) ([5]; 3 μM): 88.21 ± 1.03 % | Relative current amplitude (%) ([5]; 10 μM): 82.92 ± 1.29 % | Relative current amplitude (%) ([5]; 30 μM): 78.21 ± 2.14 % | Relative current amplitude (%) ([5]; 50 μM): 73.86 ± 3.78 % | Relative current amplitude (%) ([5]; 100 μM): 71.61 ± 1.68 % | Relative current amplitude (%) ([5]; 250 μM): 64.52 ± 3.05 % | Relative current amplitude (%) ([5]; 500 μM): 58.10 ± 2.74 % | Relative current amplitude (%) ([5]; 1000 μM): 39.37 ± 5.33 % | IC50 ([5]; high affinity fit, read-out: hCav3.2 IC50 (μM) High affinity): 6.54 µM | IC50 ([5]; low affinity fit, read-out: hCav3.2 IC50 (μM) Low affinity): 883 µM | effects upon sub-maximal GABA currents (in words) [6]: devoid of effects

Cc1ncc2n1-c1ccc(Cl)cc1C(c1ccccc1F)=NC2 [Midazolam]
Current stimulation (%) α1β2γ2 ([1]; 3 μM with GABA at EC5, Ltk cells): 184.81 ± 32.93 %

COCC(=O)O[C@]1(CCN(C)CCCc2nc3ccccc3[nH]2)CCc2cc(F)ccc2[C@@H]1C(C)C [Mibefradil]
effect on hCav3.2 calcium peak currents (in words) [5]: dose dependently inhibited

NC(=O)N1c2ccccc2CC(=O)c2ccccc21 [Oxcarbazepine, 10,11-dihydro-10-oxo-5H-dibenz[b,f]azepine-5-carboxamide]
effect on hCav3.2 currents (in words) ([5]; up to 30 μM): devoid of effect
